In patent US20260216166A1, “COMPOUND FOR TREATMENT OF ERECTILE DYSFUNCTION” (Initiator Pharma A/S, priority 2023, published 2026):
Entries after “also recorded” stand apart in the source; their conditions may differ. Like-named read-outs stand apart in the source and are kept apart here.

Tests used:
[1] = system: sperm count and motility; assay: Semen analysis after repeat single oral doses in male subjects with ED; assay type: in vivo, human; conditions: 5 mg or 10 mg, four weekly doses; Day -7 versus Week 4
Protocol: (§1) On Day-7, and at the Week 1 (Day 1), Week 2, Week 3, Week 4 and Follow-up visits, all groups were asked to complete the IIEF-15 questionnaire. Group 2 was asked to complete a Visual Stimulation Assessment using a RigiScan Plus Monitor on Day-7, Week 1 (Day 1) and Week 4. Group 2 was also required to provide blood samples for pharmacokinetic assessment on Week 1 (Day 1) and Week 4. Group 3 was required to provide semen samples on Day-7 and Week 4.
(§2) Efficacy was assessed through the International Index of Erectile Function (IIEF)-15 questionnaire. The change from baseline in responses to questions of the IIEF-15 questionnaire, including questions regarding erectile function, orgasmic function, sexual desire, intercourse satisfaction and overall satisfaction domain scores, was determined at different time points of the study. RigiScan assessments during the stimulus assessment, and sperm count and motility by semen sample collection was used for efficacy evaluation. Safety was assessed through AE reporting, 12-lead ECG, vital signs, physical examinations and clinical laboratory evaluations. Pharmacokinetics was assessed by blood sampling.

[2] = Plasma concentrations after repeat single oral doses in male subjects with ED; assay type: in vivo, human; conditions: 5 mg and 10 mg; Week 1 and Week 4
Protocol: as §1, §2

[3] = system: anaesthetized rats; assay: Intracavernous pressure / spontaneous erections in anaesthetized rats; assay type: in vivo, rat
Protocol: For in vivo erectile physiology studies, rats were anaesthetized with pentobarbital sodium (Sygehus Apoteket, Aarhus, Denmark; 50 mg/kg) given intraperitoneally. During the experiment, the rats breathed spontaneously; the body temperature was monitored continuously and was maintained at 37° C. With a midline incision in the perineum, the base of the penis, enclosed by striated muscles, was exposed. The ischiocavernous muscle covering the crus corpus cavernosum was divided on one side, and entrance to the underlying tunica albuginea was given. A 25-gauge needle attached to a heparinized (100 IE ml-1) polyethylene catheter was inserted into the crus corpus cavernosum to measure intracavernous pressure (ICP). A heparinized polyethylene catheter (PE 50) was introduced into the carotid artery to measure mean arterial pressure (MAP). Continuous direct measurements of MAP and ICP were performed with transducers (Disposable BP Transducer, ADInstruments, UK), and registered and analysed on a computerized data acquisition system (PowerLab, ADInstruments).
A stabilizing period of 20-30 min was allowed before registration of basal ICP and MAP. Through a lower abdominal incision, the cavernous nerve was isolated at the lateral aspect of the prostate, and electrical stimulation was performed with a slender bipolar platinum electrode, which was connected to a S48 stimulator (Grass Instrument Co., Boston, MA, U.S.A.). To measure the maximum amplitude of the erectile response, a first stimulation of the cavernous nerve (square wave pulses of 6 Volts, 10 Hz, 1 ms pulse duration for 30 s) was performed.
IP2015, sildenafil, clozapine or vehicle were administered by injection in the jugular vein in volumes of maximum 200 μl. […] The observation period of spontaneous erection after injection of IP2015 was 30 min. Clozapine (1 mg/kg) or sildenafil (1 mg/kg) were administered 30 or 10 min prior to 1 mg/kg IP2015 injection, respectively. One group was injected with vehicle alone.
To investigate the involvement of proximal neuronal pathways in the effect of IP2015, mechanical denervation was performed. For mechanical denervation the isolated cavernous nerve was cut distal to the major pelvic ganglion. Absence of erectile response to electrical stimulation verified the efficacy of mechanical denervation.

[4] = Phase I ascending single oral dose pharmacokinetics in healthy male subjects; assay type: in vivo, human; conditions: for half-life / Tmax: male, human, plasma
Protocol: The study was a Phase I, randomised, double-blind, placebo-controlled, ascending single oral dose, safety, tolerability, pharmacokinetic (PK) and pharmacodynamics (PD) study of IP2015 in healthy male subjects.
Each subject received one oral dose of IP2015 or matched placebo. The starting dose of IP2015 was 0.01 mg in Cohort 1. The dose level was to be escalated to a maximum of 0.05 mg in Cohort 2 and a maximum of 0.2 mg in Cohort 3. The doses in the remaining five cohorts were to be determined based on the dose escalation criteria. In every cohort, no more than 2 subjects were dosed on the first dosing day (1 active; 1 placebo) such that no more than 1 subject received an active IP2015 dose for the first time at each dose level.
The IP2015 or matched placebo was administered once on the morning of Day 1 as an oral solution in the fasted state. The dose was taken with 240 ml of water at room temperature. Subjects/participants were fasted overnight prior to dosing until 4 hours postdose. Water was allowed ad libitum except for 1 hour before and 1 hour after dosing.
The doses used in each cohort were as follows: • Cohort 1-0.01 mg • Cohort 2-0.05 mg • Cohort 3-0.2 mg • Cohort 4-0.6 mg • Cohort 5-1.8 mg • Cohort 6-5.4 mg • Cohort 7-16.2 mg • Cohort 8-10 mg
The study also evaluated plasma PK concentrations and parameters including but not limited to: area under the plasma concentration vs time curve (AUC), from time zero to the last quantifiable concentration (AUC0-t), AUC from zero to infinity (AUC0-∞), observed maximum plasma concentration (Cmax), time to reach maximum plasma concentration (tmax) and terminal elimination half-life (T½) in healthy male subjects. Blood samples for the determination of plasma concentrations of IP2015 were collected at predose, and 0.25, 0.5, 1, 1.5, 2, 3, 4, 6, 8, 12, 16, 24, 36 and 48 hours postdose.
Safety parameters were listed and summarised using descriptive statistics. Pharmacokinetic parameter estimates were calculated using noncompartmental methods. Pharmacokinetic data were listed for each subject/patient and summarised by descriptive statistics.
Dose proportionality was analysed for Part A with a linear regression model using the logarithm of a PK parameter as responsible variable and the logarithm of the dose as the independent variable. The linear regression model can be expressed as: […]
The above model was applied to the following PK parameters; AUC0-t, AUC0-∞ and Cmax. Based on the linear regression model, the dose proportionality coefficient (slope) and its two-sided 90% confidence interval (CI) were estimated. Dose proportionality was declared if the 90% CI for the slope was completely contained in the following range 16: 1+log (0.5)/log (r), 1+log (2)/log (r), where r is the high dose/low dose.

[5] = 0.2 to 16.2 mg single dose range

## COc1cc2ccc(OC3CC4CCC(C3)N4)cc2oc1=O (centres unmarked) [IP2015, 7-[(8-azabicyclo[3.2.1]octan-3-yl)oxy]-3-methoxy-chromen-2-one]
[1]
  sperm count, motility, or morphology: did not have negative effects on sperm count, motility, or morphology
[2]
  relation of plasma concentrations to dose: linear relation of plasma concentrations to dose
[3]; anaesthetized rats, 0.1, 1, and 10 mg/kg in the jugular vein, in contrast to vehicle
  intracavernosal pressure: induced transient increases in intracavernosal pressure corresponding to erections; also recorded: dose-dependent increases in intracavernous pressure
[3]; anaesthetized rats, IP2015 administration
  responses to electrical field stimulation (EFS) of the cavernous nerve: without changing the responses to EFS
[3]; anaesthetized rats, compared to vehicle
  magnitude of erectile responses, ICP increases as percentage of MAP: significantly increased compared to vehicle
[3]; anaesthetized rats, i.v. 0.1, 1, 10 mg/kg
  frequency, duration, and magnitude of spontaneous erections: dose-dependently increased the number and the duration of spontaneous erections
[3]; anaesthetized rats, mechanical denervation
  IP2015-induced erectile responses after cutting the cavernosal nerve: inhibited
[3]; direct intracavernosal injection
  penile pressure: increased penile pressure
[4]; [5]
  increase of systemic exposure with dose based on AUC0-t: greater than dose-proportional manner
  increase of systemic exposure with dose based on AUC0-∞ and Cmax: slightly more than dose-proportional manner
[4]; healthy males, 0.2 mg
  subjects with plasma concentrations below the LLOQ: 3/7
[4]; healthy males, single oral 0.01 mg and 0.05 mg
  plasma concentrations of IP2015: below the LLOQ for all subjects
[4]; oral, healthy males, 0.6 mg, calculated for 1/6 subjects, read-out: mean t½ (converted)
  half-life: 14.5 h
[4]; oral, healthy males, 1.8 mg, calculated for 3/6 subjects, read-out: mean t½ (converted)
  half-life: 16.1 h
[4]; oral, healthy males, across all dose levels, read-out: tmax range
  Tmax: 1 to 6 h
[4]; oral, healthy males, range of means across 5.4 mg to 16.2 mg doses, read-out: mean T½
  half-life: 23.1 to 26.3 h
[4]; healthy males, range of medians across single oral doses 0.2-16.2 mg, read-out: median tmax
  Tmax: 2.25 to 5 h
